Where two headings read alike, the source gives them in different places.
Experiments:
[1] = maximum therapeutic plasma concentration, cited from earlier work
[2] = system: human iPSC-derived cardiomyocytes (iCells); details: for amplitude of impedance: amplitude of each beat; for IB20: lowest concentration producing IBR ≥0.2 (≥20% irregular beats over one minute)
Method: Cell Culture. hiPSC-derived cardiomyocytes (iCells) from Cellular Dynamics International (CDT) were thawed in Plating Media (CDI and plated as single cells onto 0.1% Gelatin (Sigma)-coated, 6-well tissue-culture plates (Corning) at a density of 2.2−2.7×10^6 cells per well. Cells were cultured for 3-5 d at 37° C., 7% CO2 prior to re-plating onto xCELLigence® 96-well cardio e-plates (ACEA/Roche Applied Sciences) or microelectrode arrays (MEAs, Multichannel Systems). The media was changed every 2 d after plating using Maintenance Media (CDI), pre-warmed to 37° C. to minimize the temperature shock on cells.
xCELLigence® cardio e-plates and MEA Re-plating. iCells cultured in 6-well plates were harvested by twice washing in dPBS (GIBCO) then lifted with 0.5% Trypsin-EDTA (GIBCO), incubated at 37° C., 7% CO2. Trypsin was quenched with Maintenance Media and cells were collectively centrifuged at 69 g for 5 minutes and resuspended in Maintenance Media to yield the target density. For cardio e-plate reseeding, cells were plated at a target density of 5×10^4 per well, estimating 80% seeding efficiency. Cardio e-plates were coated with 0.1% Gelatin for 3 h at 37° C. Background impedance measurements for cardio e-plates were made with the final volume of media equilibrated to 37° C. but without cells, immediately prior to reseeding the cells. The cells were monitored every 1 h by a 20 s sweep duration by the xCELLigence® RTCA cardio system at its maximum sampling rate (77 Hz) prior to initiating experimentation.
xCELLigence® and MEA Experimentation. Compound stocks were prepared in DMSO or dH2O at 1000 fold the highest tested concentration. For xCELLigence® experimentation, compound stocks were serially diluted in Maintenance Media in a separate 96-well tissue culture plate (Corning) at twice the target concentration. The dilution plate was incubated and equilibrated to 37° C. prior to cell exposure. […] All compounds were tested as n≧3 on multiple cardio e-plates. The xCELLigence® monitored changes to the beating for periodic 20 s sweep durations at 77 Hz.
Data Analysis. Data were first analyzed by the built-in analysis modules of xCELLigence® and MEAs systems, initial results were then exported into in-house developed Microsoft Excel templates for further semi-auto analysis. […] To calculate the “Predicted Proarrhythmic Score” (PPS), we first determined a “Irregular Beat Ratio” (IBR). The IBR was defined as the ratio of arrhythmic beat counts to the total number of beats over one minute. IBR values for each concentration at each selected time-point was averaged from 3 to 5 e-plates. The lowest concentration of drug, that generated a IBR value ≧0.2 was determined and termed “IB20.” Finally, the maximal therapeutic plasma concentration (Cmax) was divided by the IB20 to arrive at the PPS. A PPS >100 is a level of concern for drug-induced arrhythmia. […]

[3] = system: TdP; details: clinical; cited from earlier work
[4] = system: human iPSC-derived cardiomyocytes (iCells); experiment: Multi-electrode array (MEA) field potential recording of iPSC-derived cardiomyocytes; format: cell-based; details: iPSC-CMs
Method: MEAs were prepared according to manufacturer guidelines. Briefly, microelectrodes in 6-well MEA dishes were coated with 2 μL Fibronectin (Sigma) diluted 1:20 and incubated at 37° C. for 3 h. Cells were reseeded at the target density of 3×10^4 cells in a 2 μL delivery to microelectrodes and incubated at 37° C., 7% CO2 for 3 h prior to filling each well with Maintenance Media. The media of cardio e-plates and MEAs were changed every 2 d thereafter, using Maintenance Media warmed to 37° C. Cells were cultured for 3-7 d prior to conducting an experiment on cardio e-plates or MEAs.
The wells of the MEAs had half the volume in each well replaced with fresh warm Maintenance Media, immediately prior to experimentation so as to be consistent with the media replacement for xCELLigence® experimentation. MEAs were allowed a 15 min equilibration period within the MEA recorder system (Multichannel Systems), prior to compound exposure. The temperature was maintained at 37° C. and a constant air flow of 95% O2, 5% CO2, was perfused over the MEAs. Compound additions were made in serially increasing additions, recording for 15 min at each concentration. All compounds were tested as n≧4 wells.

[5] = system: QT interval; details: cited from earlier work
[6] = target: hERG channel (Homo sapiens, UniProt Q12809); details: cited from earlier work
[7] = Table I, Cmax/IB20, cut-off >100 as level of concern

Chain of hERG channel (Q12809 whole entry): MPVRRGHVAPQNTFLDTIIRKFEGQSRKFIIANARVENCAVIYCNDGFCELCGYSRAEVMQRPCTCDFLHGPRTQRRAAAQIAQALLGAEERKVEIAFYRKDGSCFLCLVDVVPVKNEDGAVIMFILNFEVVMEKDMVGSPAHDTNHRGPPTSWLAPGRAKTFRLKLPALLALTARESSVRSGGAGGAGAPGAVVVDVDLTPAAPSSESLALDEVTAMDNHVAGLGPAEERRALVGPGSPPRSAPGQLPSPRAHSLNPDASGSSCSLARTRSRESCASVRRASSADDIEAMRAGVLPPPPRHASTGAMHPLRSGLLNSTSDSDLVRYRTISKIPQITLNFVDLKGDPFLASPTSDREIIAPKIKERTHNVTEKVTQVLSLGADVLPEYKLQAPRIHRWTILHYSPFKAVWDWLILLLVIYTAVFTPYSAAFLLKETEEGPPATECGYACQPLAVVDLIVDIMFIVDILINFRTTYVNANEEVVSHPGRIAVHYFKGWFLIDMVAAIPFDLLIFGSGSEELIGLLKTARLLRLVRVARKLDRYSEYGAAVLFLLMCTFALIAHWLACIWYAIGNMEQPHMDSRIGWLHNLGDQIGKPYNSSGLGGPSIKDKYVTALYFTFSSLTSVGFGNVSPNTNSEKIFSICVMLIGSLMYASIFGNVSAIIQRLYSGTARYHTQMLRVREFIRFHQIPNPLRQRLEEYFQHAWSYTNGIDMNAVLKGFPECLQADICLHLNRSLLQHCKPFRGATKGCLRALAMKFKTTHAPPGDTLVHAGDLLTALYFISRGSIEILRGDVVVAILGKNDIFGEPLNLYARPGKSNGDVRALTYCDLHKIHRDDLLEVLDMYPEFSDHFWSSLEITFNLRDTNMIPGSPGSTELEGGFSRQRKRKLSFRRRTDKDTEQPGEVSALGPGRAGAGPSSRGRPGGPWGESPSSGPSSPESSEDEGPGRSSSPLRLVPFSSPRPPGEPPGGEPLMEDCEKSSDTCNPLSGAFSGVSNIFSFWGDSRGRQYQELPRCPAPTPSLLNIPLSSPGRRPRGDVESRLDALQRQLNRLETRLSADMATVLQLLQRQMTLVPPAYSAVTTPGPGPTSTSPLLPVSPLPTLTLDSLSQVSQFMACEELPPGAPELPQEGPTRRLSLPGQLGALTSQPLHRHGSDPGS

CC(C)NCC(O)c1ccc(NS(C)(=O)=O)cc1 (centres unmarked) [Sotalol]
Cmax ([1]; Table I): 14700 nM | Cmax ([1]; Table II): 14700 nM | alterations in beat patterns / arrhythmic beats [2]: Irregular beating patterns were observed

C=C[C@H]1C[N@@]2CC[C@H]1C[C@@H]2[C@@H](O)c1ccnc2ccc(OC)cc12 [Quinidine]
Cmax ([1]; Table I): 21600 nM | Cmax ([1]; Table II): 21600 nM | alterations in beat patterns / arrhythmic beats [2]: Irregular beating patterns were observed | PPS [2, 7]: 2158 | PPS ([2]; human): 0.5

CCCCc1oc2ccccc2c1C(=O)c1cc(I)c(OCCN(CC)CC)c(I)c1 [Amiodarone]
TdP liability [3]: very low risk of TdP

CC(C)NCC(O)c1ccc(O)c(O)c1 (centres unmarked) [Isoproterenol]
amplitude of impedance ([2]; iPSC-CMs): increased | beat rate ([2]; iPSC-CMs, impedance): increased | beat rate in MEA [4]: increased

CCN(c1ccccc1)c1cc(=NC)n(C)c(C)n1.Cl [ZD7288]
beat rate ([2]; iPSC-CMs, impedance): reduction in beat rate

CC[C@H]1OC(=O)[C@H](C)[C@@H](O[C@H]2C[C@@](C)(OC)[C@@H](O)[C@H](C)O2)[C@H](C)[C@@H](O[C@@H]2O[C@H](C)C[C@H](N(C)C)[C@H]2O)[C@](C)(O)C[C@@H](C)C(=O)[C@H](C)[C@@H](O)[C@]1(C)O [Erythromycin]
Cmax ([1]; Table I): 34100 nM | Cmax ([1]; Table II): 34100 nM | alterations in beat patterns / arrhythmic beats [2]: Irregular beating patterns were observed

CS(=O)(=O)c1ccc(C2=C(c3ccccc3)C(=O)OC2)cc1 [Rofecoxib]
QT prolongation ([5]; in patients / in vivo): devoid of QT prolongation | Cmax ([1]; Table I): 1020 nM | Cmax ([1]; Table II): 1020 nM | TdP liability [3]: devoid of QT prolongation and TdP liability

CN(CCOc1ccc(NS(C)(=O)=O)cc1)CCc1ccc(NS(C)(=O)=O)cc1 [Dofetilide]
Cmax ([1]; Table I): 6 nM | Cmax ([1]; Table II): 6 nM | PPS [2, 7]: 2000 | PPS ([2]; human): 0.5

CCN1C[C@]2(COC)[C@H](O)C[C@H](OC)[C@@]34[C@@H]5C[C@@]6(O)[C@H](OC(=O)c7ccccc7)[C@@H]5[C@@](OC(C)=O)([C@@H]([C@H](OC)[C@H]23)[C@@H]14)[C@@H](O)[C@@H]6OC [Aconitine]
Cmax ([1]; Table I): 77 nM | Cmax ([1]; Table II): 77 nM | concentration showing arrhythmia relative to the efficacious concentration [2]: arrhythmia at concentrations less than the efficacious concentration | PPS [2, 7]: 2567 | IB20 ([2]; Table I): 0.03 µM | IB20 ([2]; Table II): 0.03 µM | PPS ([2]; human): 0.4

CC(=O)Oc1ccccc1C(=O)O [Aspirin]
QT prolongation ([5]; in patients / in vivo): devoid of QT prolongation | Cmax ([1]; Table I): 10000 nM | Cmax ([1]; Table II): 10000 nM | TdP liability [3]: devoid of QT prolongation and TdP liability

Cc1cccc(CCN2CCC(C(=O)c3ccc(NS(C)(=O)=O)cc3)CC2)n1 [E-4031]
beat rate ([2]; iPSC-CMs, impedance): dose-dependent reduction in beat rate

CC(C)(C)c1ccc(C(O)CCCN2CCC(C(O)(c3ccccc3)c3ccccc3)CC2)cc1 (centres unmarked) [Terfenadine]
Cmax ([1]; Table I): 300 nM | Cmax ([1]; Table II): 300 nM

COc1cc(N)c(Cl)cc1C(=O)NC1CCN(CCCOc2ccc(F)cc2)CC1OC (centres unmarked) [Cisapride]
Cmax ([1]; Table I): 129 nM | Cmax ([1]; Table II): 129 nM | alterations in beat patterns / arrhythmic beats [2]: Irregular beating patterns were observed

C[C@@H]1O[C@@H](O[C@H]2C[C@@H](O)[C@]3(CO)[C@H]4[C@H](O)C[C@]5(C)[C@@H](C6=CC(=O)OC6)CC[C@]5(O)[C@@H]4CC[C@]3(O)C2)[C@H](O)[C@H](O)[C@H]1O [Ouabain]
Cmax ([1]; Table I): 170 nM | Cmax ([1]; Table II): 170 nM | PPS [2, 7]: 5667 | IB20 ([2]; Table I): 0.03 µM | IB20 ([2]; Table II): 0.03 µM | PPS ([2]; human): 0.2 | alterations in beat patterns / arrhythmic beats ([2]; human iPSC-CMs): Irregular beating patterns were observed | amplitude of impedance ([2]; iPSC-CMs): increased | amplitude in MEA ([4]; for nifedipine Ca2+-peak amplitude): increased

COc1c(N2C[C@@H]3CCCN[C@@H]3C2)c(F)cc2c(=O)c(C(=O)O)cn(C3CC3)c12 [Moxifloxacin]
QT prolongation ([5]; human, in vivo): induce QT prolongation | Cmax ([1]; Table I): 10300 nM | Cmax ([1]; Table II): 10300 nM | alterations in beat patterns / arrhythmic beats [2]: not torsadogenic | PPS [2, 7]: <103 | PPS ([2]; human): >10 | hERG inhibition [6]: inhibit hERG

NC1=N[C@H](O)[C@H]2[C@H]3O[C@]4(O)O[C@@H]([C@@H](O)[C@@]2(N1)[C@@H]4O)[C@]3(O)CO [Tetrodotoxin]
beat rate [2]: reduction in beat rate

COc1cc2nc(N(C)CCCNC(=O)C3CCCO3)nc(N)c2cc1OC (centres unmarked) [Alfuzosin]
QT prolongation ([5]; in patients / in vivo): induce QT prolongation | Cmax ([1]; Table I): 56 nM | Cmax ([1]; Table II): 56 nM | effect at concentrations substantially higher than employed in vivo [2]: beat rate reduction and appearance of arrhythmic beats | TdP liability [3]: free of TdP

COc1ccccc1OCC(O)CN1CCN(CC(=O)Nc2c(C)cccc2C)CC1 (centres unmarked) [Ranolazine]
QT prolongation ([5]; in patients / in vivo): induce QT prolongation | Cmax ([1]; Table I): 6010 nM | Cmax ([1]; Table II): 6010 nM | alterations in beat patterns / arrhythmic beats [2]: not torsadogenic | TdP liability [3]: free of TdP | hERG inhibition [6]: inhibit hERG

CC1(C)S[C@@H]2[C@H](NC(=O)[C@H](N)c3ccc(O)cc3)C(=O)N2[C@H]1C(=O)O [Amoxicillin]
QT prolongation ([5]; in patients / in vivo): devoid of QT prolongation | Cmax ([1]; Table I): 17000 nM | Cmax ([1]; Table II): 17000 nM | IB20 ([2]; Table I): >1,000 μM | IB20 ([2]; Table II): >1,000,000 nM | TdP liability [3]: devoid of QT prolongation and TdP liability

COc1ccc(CCN2CCC(Nc3nc4ccccc4n3Cc3ccc(F)cc3)CC2)cc1 [Astemizole]
Cmax ([1]; Table I): 8 nM | Cmax ([1]; Table II): 8 nM

CNCCC(Oc1ccc(C(F)(F)F)cc1)c1ccccc1 (centres unmarked) [Fluoxetine]
Cmax ([1]; Table I): 485 nM | Cmax ([1]; Table II): 485 nM | TdP liability [3]: very low risk of TdP

C[C@H](CS)C(=O)N1CCC[C@H]1C(=O)O [Captopril]
QT prolongation ([5]; human, in vivo): devoid of QT prolongation | Cmax ([1]; Table I): 2470 nM | Cmax ([1]; Table II): 2470 nM | PPS [2, 7]: <25

Cc1ccc2c(c1)C(=O)C1(O)CCN(c3ccccc3)C1=N2 (centres unmarked) [blebbistatin]
cardiomyocyte beating using impedance ([2]; iPSC-CMs, myosin II inhibition): no cardiomyocyte beating was observed | electrophysiology of the cardiomyocytes detected by MEA [4]: remained unchanged
